Patent US20080280926A1, “Phosphodiesterase Inhibitors” (priority 2003, published 2008)

Row | melting point [°C] | Compound
1 | 124 to 125 | CC(C)(C)C(=O)Nc1ncnc2c1nc(-n1cccn1)n2Cc1ccccc1 [Compound No. 1, N-(9-Benzyl-8-pyrazol-1-yl-9H-purin-6-yl)-2,2-dimethylpropionamide]
2 | 189.5 to 199 | C=CCNC(=O)Nc1ncnc2c1nc(-n1cccn1)n2Cc1ccccc1 [Compound No. 12, 1-Allyl-3-(9-benzyl-8-pyrazol-1-yl-9H-purin-6-yl)-urea]
